According to patent US8648105B2, “Diarylthiohydantoin compounds” (The Regents of the University of California, priority 2006, dated 2014):
“Also recorded” adds a separate entry of the source.

Columns and labels:
[1] = tested on: urogenital tract; assay: Luciferase transgenic mice with testosterone pellet, urogenital tract weight and photon emission (FIG. 22); assay type: in vivo; conditions: castrated mice with testosterone pellet, 10 mg/kg per day, 14 days
Procedure: FIG. 22 presents results of an experiment conducted with wild type nontransgenic mice (WT), castrated luciferase transgenic mice (Cast), and non-castrated luciferase transgenic mice (Intact). Data are shown for castrated luciferase transgenic mice treated with an implanted testosterone pellet yielding 12.5 mg per kilogram body weight with a 90 day release period (T/Cast), and data are shown for non-castrated luciferase transgenic mice treated with an implanted testosterone pellet yielding 12.5 mg per kilogram body weight with a 90 day release period (Intact+T). […]. (A) Urogenital tract weight at 14 days. (B) Photon emission rate at 14 days. In all cases, a hormone refractory disease state was not induced.
[…]. Moreover, the higher the dose, the lower the PSA level. […]. The weight and rate of photon emission increased for both intact and castrated mice.

[2] = tested on: AR-overexpressed LNCaP xenograft tumors; assay: AR-overexpressed LNCaP xenograft model in castrated SCID mice; assay type: in vivo
Procedure: FIG. 7 is a graph of tumor size. AR overexpressing LNCaP cells were injected in the flanks of castrated SCID mice, subcutaneously. When tumors reached about 100 cubic mm, they were randomized into five groups. Each group had nine animals. […]. The tumors were measured three-dimensionally, width, length and depth, using a caliper.
FIG. 8 depicts experimental results of tumor size. At day 18, the animals were imaged via an optical CCD camera, 3 hours after last dose of treatment. A ROI was drawn over the tumor for luciferase activity measurement in photon/second. The right panels is a representation of the ROIs measurements.
Compounds of the invention are used to examine if the diaryihydantoin derivatives have in vivo effects on hormone refractory prostate cancer. First we examine this compound on xenograft tumors established from AR-overexpressed LNCaP cells. Engineered cells in Matrigel (Collaborative Biomedical) are injected subcutaneously into the flanks of the castrated male SCID mice. Tumor size is measured weekly in three dimensions using calipers. After xenograft tumors established (tumor size at least 40 mm^3), mice with tumors are randomized and treated with different doses of compounds orally once daily. The inhibitory effect on growth of AR-overexpressed LNCaP xenograft model is studied as follows. Mice with established LN-AR xenograft tumors are randomized and treated with indicated compounds orally once daily. Tumor size are measured by caliber.
All animal experiments were performed in compliance with the guidelines of the Animal Research Committee of the University of California at Los Angeles. Animals were bought from Taconic and maintained in a laminar flow tower in a defined flora colony. LNCaP-AR and LNCaP-vector cells were maintained in RPMI medium supplemented with 10% FBS. 10^6 cells in 100 μl of 1:1 Matrigel to RPMI medium were injected subcutaneously into the flanks of intact or castrated male SCID mice. Tumor size was measured weekly in three dimensions (length×width×depth) using calipers. Mice were randomized to treatment groups when tumor size reached approximately 100 mm^3. Drugs were given orally every day at 10 mg/kg and 50 mg/kg. To obtain pharmacodynamic readout, the animals were imaged via an optical CCD camera, 3 hours after last dose of the treatment. A ROI is drawn over the tumor for luciferase activity measurement in photon/second. The right panels were a representation of the ROIs measurements. […]

[3] = tested on: LNCaP hormone sensitive xenograft; assay: LNCaP hormone sensitive xenograft model
Procedure: Each set included 6 mice. The mice were treated with 10 mg/kg per day.

[4] = tested on: hormone refractory LAPC4 xenograft; assay: Hormone refractory LAPC4 xenograft model; assay type: in vivo, mice
Procedure: Compounds of the invention are also tested in another xenograft model of hormone refractory prostate cancer, hormone refractory LAPC4. This model was established from passaging of hormone sensitive prostate cancer in castrated mice, which mimics the clinical progression of prostate cancer (2). […].

[5] = LogP; assay type: physicochemical
[6] = tested on: 1AR cell line; assay: Luciferase activity in the 1AR cell line; assay type: cell-based; conditions: 1.25 to 10 μmol
Excerpt: (§1) NC4 differs from NC3 only in that an amino group is substituted for a hydroxyl group. […] The effect of NC3 and NC4 on luciferase activity in the 1AR cell line was studied by administering various compounds at concentrations ranging from 1.25 to 10 μmol and observing PSA levels. […] The effect of NC3 and NC4 on luciferase activity in the 4AR cell line was studied by administering various compounds at concentrations ranging from 1.25 to 10 μmol and observing luciferase activity. […] The effect of NC3 and NC4 on PSA levels in the LN/AR cell line was studied by administering various compounds at concentrations ranging from 1.25 to 10 μmol and observing luciferase activity.

[7] = biological target: T1, AR (Homo sapiens, UniProt P10275); assay type: cell-based; parameters: Fold induction, AR response reporter; conditions: LN/AR cell line, 1.25 to 10 μmol
T1 sequence (P10275 1-920): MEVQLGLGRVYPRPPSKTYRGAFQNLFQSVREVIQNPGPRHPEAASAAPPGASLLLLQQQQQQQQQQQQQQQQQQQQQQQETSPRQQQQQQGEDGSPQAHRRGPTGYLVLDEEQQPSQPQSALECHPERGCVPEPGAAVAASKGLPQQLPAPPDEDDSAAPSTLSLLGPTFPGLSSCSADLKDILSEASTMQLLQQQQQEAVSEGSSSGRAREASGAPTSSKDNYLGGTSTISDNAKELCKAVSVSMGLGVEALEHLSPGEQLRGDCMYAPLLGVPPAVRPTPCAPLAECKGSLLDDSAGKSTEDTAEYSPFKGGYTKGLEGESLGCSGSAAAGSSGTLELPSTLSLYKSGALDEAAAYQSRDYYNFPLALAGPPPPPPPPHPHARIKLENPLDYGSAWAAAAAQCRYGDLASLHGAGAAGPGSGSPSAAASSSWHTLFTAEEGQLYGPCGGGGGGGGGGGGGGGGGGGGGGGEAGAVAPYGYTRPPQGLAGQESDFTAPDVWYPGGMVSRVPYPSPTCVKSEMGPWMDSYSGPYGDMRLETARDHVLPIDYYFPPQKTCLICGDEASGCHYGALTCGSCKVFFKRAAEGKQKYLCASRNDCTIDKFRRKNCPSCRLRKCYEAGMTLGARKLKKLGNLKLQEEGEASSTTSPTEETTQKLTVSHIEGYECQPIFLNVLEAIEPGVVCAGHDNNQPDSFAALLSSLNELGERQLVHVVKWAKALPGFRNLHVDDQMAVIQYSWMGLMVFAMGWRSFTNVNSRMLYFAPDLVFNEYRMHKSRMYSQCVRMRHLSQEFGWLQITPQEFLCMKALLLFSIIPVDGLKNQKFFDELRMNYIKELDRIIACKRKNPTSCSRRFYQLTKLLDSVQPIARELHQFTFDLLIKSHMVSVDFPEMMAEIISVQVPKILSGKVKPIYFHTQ
Procedure: It is well established that PSA levels are indicators of AR activities in prostate cancer. […] The LNCaP-AR cells are a line of lymph node carcinoma of prostate cells transduced with a plasmid that makes express androgen receptors. […] After four days incubation, secreted PSA levels were assayed using PSA ELISA kits (American Qualex, San Clemente, Calif.)

[8] = tested on: 4AR cell line; assay: Luciferase activity in the 4AR cell line; assay type: cell-based; conditions: 1.25 to 10 μmol
Excerpt: as §1

SMILES | urogenital tract weight and photon emission [1] | photon emission associated with luciferase activity ([2]; FIG. 8, day 18, relative to vehicle) | tumor growth / tumor volume ([2]; oral once daily, FIG. 7: 10 or 50 mg/kg, 18 days) | rate of tumor growth (tumor volume) ([3]; 10 mg/kg per day, FIG. 6) | PSA levels ([3]; FIG. 16, relative to vehicle solution) | growth and PSA expression [4] | logP [5] | luciferase activity (comparison) [6] | PSA level (comparison) [7] | luciferase activity (comparison) [8]
CC(O)(CS(=O)(=O)c1ccc(F)cc1)C(=O)Nc1ccc(C#N)c(C(F)(F)F)c1 (stereo not shown) [Bicalutamide, N-[4-cyano-3-(trifluoromethyl)phenyl]-3-[(4-fluorophenyl)sulfonyl]-2-hydroxy-2-methylpropanamide, reference compound] | decrease in weight and photon emission | remained about the same or increased | did not inhibit growth; also recorded: tumors continued to grow | slower than mice treated with vehicle solution | stayed the same or increased | did not inhibit growth and PSA expression | 2.91 |  |  | 
CC1(C)C(=O)N(c2ccc(C#N)c(C(F)(F)F)c2)C(=S)N1c1ccc(O)cc1 [NC3, 4-[3-(4-hydroxyphenyl)-4,4-dimethyl-5-oxo-2-thioxoimidazolidin-1-yl]-2-trifluoromethylbenzonitrile] |  |  |  |  |  |  |  | less than the luciferase activity upon exposure to NC4 | less than the PSA level upon exposure to NC4 | less than the luciferase activity upon exposure to NC4
